Test results: publication PMC9743092, “Membrane-Active Cyclic Amphiphilic Peptides: Broad-Spectrum Antibacterial Activity Alone and in Combination with Antibiotics” (Journal of Medicinal Chemistry, 2022)
Converted amounts (≈) assume the structure as drawn. Read-outs that look alike come from different tables or passages of the source. Peptide text beside a SMILES is read from it.

Key:
E. coli (ATCC 25922) [1] = conditions: 24 h, ≥99.9% kill
[2] = system: K. pneumoniae (ATCC BAA-1705); conditions: for MIC K. pneumoniae: supplementary csv, unit not given
MRSA (ATCC BAA-1556) [3] = system: MRSA (ATCC BAA-1556); design: MIC MRSA: unit not given beside the values; conditions: for MIC MRSA: supplementary csv, unit not given
[4] = system: P. aeruginosa (ATCC 27883); conditions: 24 h, ≥99.9% kill
[5] = system: K. pneumoniae (ATCC BAA-1705); conditions: 24 h, ≥99.9% kill
[6] = system: human red blood cells (hRBCs); conditions: red cells of human, 2 h
[7] = system: P. aeruginosa (ATCC 27883); design: MIC P. aeruginosa: unit not given beside the values; conditions: for MIC P. aeruginosa: supplementary csv, unit not given
E. coli (ATCC 25922) [8] = system: E. coli (ATCC 25922); design: MIC E. coli: unit not given beside the values; conditions: for MIC E. coli: supplementary csv, unit not given
MRSA (ATCC BAA-1556) [9] = test: microbe, parasite or virus in culture; conditions: Staphylococcus aureus, ATCCBAA1556|MRSA, 24 h, read-out: MBC MRSA (ATCC BAA-1556)
[10] = system: S. aureus (ATCC BAA-1556); test: Synergistic checkerboard assay; type: cell-based; conditions: Staphylococcus aureus, ATCCBAA1556; checkerboard; read-out: MIC antibiotic alone
E. coli (ATCC 25922) [11] = test: microbe, parasite or virus in culture; conditions: Escherichia coli, ATCC25922, 24 h, read-out: MBC E. coli (ATCC 25922)
[12] = system: P. aeruginosa (ATCC 27883); test: microbe, parasite or virus in culture; conditions: Pseudomonas aeruginosa, ATCC27883, 24 h, read-out: MBC P. aeruginosa (ATCC 27883)
[13] = system: K. pneumoniae (ATCC BAA-1705); test: microbe, parasite or virus in culture; conditions: Klebsiella pneumoniae, ATCCBAA1705, 24 h, read-out: MBC K. pneumoniae (ATCC BAA-1705)
[14] = system: K. pneumoniae (ATCC BAA-1705); test: Synergistic checkerboard assay
[15] = system: P. aeruginosa (ATCC 27883); test: Synergistic checkerboard assay; type: cell-based; conditions: Pseudomonas aeruginosa, ATCC27883; checkerboard; read-out: MIC antibiotic alone
[16] = antibiotic alone or physical mixture with peptide (1:1 w/w)

With `N=C(N)NCCC[C@@H]1NC(=O)[C@H](CCCNC(=N)N)NC(=O)[C@H](CCCNC(=N)N)NC(=O)[C@H](Cc2c[nH]c3ccccc23)NC(=O)[C@H](Cc2c[nH]c3ccccc23)NC(=O)[C@H](Cc2c[nH]c3ccccc23)NC(=O)[C@H](Cc2c[nH]c3ccccc23)NC(=O)[C@H](Cc2c[nH]c3ccccc23)NC(=O)[C@H](CCCNC(=N)N)NC(=O)[C@H](CCCNC(=N)N)NC1=O` [5b, [R5W5]] the “MBC E. coli (ATCC 25922)” value (E. coli (ATCC 25922) [1]) was 64 µg/mL (≈ 37.4 µM), the “MIC K. pneumoniae” value [2] was 32 and the “MIC MRSA” value (MRSA (ATCC BAA-1556) [3]) was 4. The “MBC P. aeruginosa (ATCC 27883)” value [4] was 32 µg/mL (≈ 18.7 µM), the “MBC K. pneumoniae (ATCC BAA-1705)” value [5] was 32 µg/mL (≈ 18.7 µM) and the HC50 [6] was 230 µg/mL. For the same molecule, the “MIC P. aeruginosa” value [7] was 32 and the “MIC E. coli” value (E. coli (ATCC 25922) [8]) was 16.
With `N=C(N)NCCC[C@@H]1NC(=O)[C@H](CCCNC(=N)N)NC(=O)[C@H](CCCNC(=N)N)NC(=O)[C@H](CCCNC(=N)N)NC(=O)[C@H](Cc2c[nH]c3ccccc23)NC(=O)[C@H](Cc2c[nH]c3ccccc23)NC(=O)[C@H](Cc2c[nH]c3ccccc23)NC(=O)[C@H](Cc2c[nH]c3ccccc23)NC(=O)[C@H](CCCNC(=N)N)NC(=O)[C@H](CCCNC(=N)N)NC1=O` [6a, [R6W4]] (cyclo(RRRRRRWWWW)) the “MBC E. coli (ATCC 25922)” value (E. coli (ATCC 25922) [1]) was 32 µg/mL (≈ 19 µM), the “MIC K. pneumoniae (ATCC BAA-1705)” value ([2]; MgCl2 (1 mM)) was 32 µg/mL (≈ 19 µM) and the “MIC K. pneumoniae (ATCC BAA-1705)” value ([2]; NH4Cl (6 mM)) was 32 µg/mL (≈ 19 µM). The “MIC K. pneumoniae” value [2] was 64, the “MIC MRSA (ATCC BAA-1556)” value (MRSA (ATCC BAA-1556) [3]; CaCl2 (2 mM)) was 8 µg/mL (≈ 4.76 µM) and the “MIC MRSA (ATCC BAA-1556)” value (MRSA (ATCC BAA-1556) [3]; FBS (25%)) was 8 µg/mL (≈ 4.76 µM). For the same molecule, the “MIC MRSA (ATCC BAA-1556)” value (MRSA (ATCC BAA-1556) [3]; FeCl3 (8 µM)) was 8 µg/mL (≈ 4.76 µM), the “MIC MRSA (ATCC BAA-1556)” value (MRSA (ATCC BAA-1556) [3]; KCl ([…])) was 8 µg/mL (≈ 4.76 µM) and the “MIC MRSA (ATCC BAA-1556)” value (MRSA (ATCC BAA-1556) [3]; MH broth media, absence of salts and serum) was 8 µg/mL. For the same molecule, the “MIC MRSA (ATCC BAA-1556)” value (MRSA (ATCC BAA-1556) [3]; MgCl2 (1 mM)) was 4 µg/mL (≈ 2.38 µM), the “MIC MRSA (ATCC BAA-1556)” value (MRSA (ATCC BAA-1556) [3]; NH4Cl (6 mM)) was 4 µg/mL (≈ 2.38 µM) and the “MIC MRSA (ATCC BAA-1556)” value (MRSA (ATCC BAA-1556) [3]; NaCl (150 mM)) was 8 µg/mL (≈ 4.76 µM). For the same molecule, the “MIC MRSA” value (MRSA (ATCC BAA-1556) [3]) was 8, the “MBC P. aeruginosa (ATCC 27883)” value [4] was 16 µg/mL (≈ 9.51 µM) and the “MBC K. pneumoniae (ATCC BAA-1705)” value [5] was 128 µg/mL (≈ 76.1 µM). For the same molecule, the HC50 [6] was 265 µg/mL, the “MIC P. aeruginosa” value [7] was 16 and the “MIC E. coli” value (E. coli (ATCC 25922) [8]) was 32.
For `N=C(N)NCCC[C@@H]1NC(=O)[C@H](CCCNC(=N)N)NC(=O)[C@H](CCCNC(=N)N)NC(=O)[C@H](CCCNC(=N)N)NC(=O)[C@H](Cc2c[nH]c3ccccc23)NC(=O)[C@H](Cc2c[nH]c3ccccc23)NC(=O)[C@H](Cc2c[nH]c3ccccc23)NC(=O)[C@H](Cc2c[nH]c3ccccc23)NC(=O)[C@H](Cc2c[nH]c3ccccc23)NC(=O)[C@H](CCCNC(=N)N)NC(=O)[C@H](CCCNC(=N)N)NC1=O` [6b, [R6W5]] (cyclo(RRRRRRWWWWW)), the “MBC E. coli (ATCC 25922)” value (E. coli (ATCC 25922) [1]) was 128 µg/mL (≈ 68.5 µM), the “MIC K. pneumoniae” value [2] was 64 and the “MIC MRSA” value (MRSA (ATCC BAA-1556) [3]) was 8. For the same molecule, the “MBC P. aeruginosa (ATCC 27883)” value [4] was 32 µg/mL (≈ 17.1 µM), the “MBC K. pneumoniae (ATCC BAA-1705)” value [5] was 64 µg/mL (≈ 34.3 µM) and the HC50 [6] was 255 µg/mL. The “MIC P. aeruginosa” value [7] was 16 and the “MIC E. coli” value (E. coli (ATCC 25922) [8]) was 32.
With `O=C(O)c1cn(C2CC2)c2cc(N3CCNCC3)c(F)cc2c1=O` [ciprofloxacin] the MBC (MRSA (ATCC BAA-1556) [9]) was 32 µg/mL (≈ 96.6 µM), the “MIC S. aureus (ATCC BAA-1556)” value (MRSA (ATCC BAA-1556) [3]; [16]) was 16 µg/mL (≈ 48.3 µM) and the MIC [10] was 16 µg/mL. For the same molecule, the MBC (E. coli (ATCC 25922) [11]) was 16 µg/mL (≈ 48.3 µM), the MBC [12] was 8 µg/mL (≈ 24.1 µM) and the MBC [13] was 16 µg/mL (≈ 48.3 µM). The “MIC E. coli (ATCC 25922)” value (E. coli (ATCC 25922) [8]; [16]) was 64 µg/mL (≈ 193 µM).
`CCC[C@@H]1C[C@@H](C(=O)N[C@@H]([C@H]2O[C@H](SC)[C@H](O)[C@@H](O)[C@H]2O)[C@H](C)Cl)N(C)C1` [clindamycin] was tested, and the “MIC K. pneumoniae (ATCC BAA-1705)” value [2, 16] was 512 µg/mL (≈ 1200 µM), the MIC ([14]; Klebsiella pneumoniae, ATCCBAA1705, read-out: MIC antibiotic alone) was 512 µg/mL and the MIC antibiotic alone ([14]; checkerboard) was 512 µg/mL. For the same molecule, the MIC [15] was 512 µg/mL and the “MIC P. aeruginosa (ATCC 27883)” value [7, 16] was 512 µg/mL (≈ 1200 µM).
